Results as given in PubChem BioAssay (NCI).
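Where inhibition never reached the appropriate level, the endpoint shown equals the highest concentration tested. Otherwise, values were interpolated linearly from a five-concentration, 48-hour dose response in 96-well plates. The concentration for full growth arrest is given as TGI.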

Tested on: T-47D breast
Assay: inhibition of tumour cell growth, NCI panel, 48 h

`COc1ccc(N2C(=O)C3c4[nH]c5cc(C)ccc5c4C4CCC(C(C)(C)C)CC4C3C2=O)cc1` (stereo not drawn) and `CC(C)(C)c1ccc2c(c1)C#Cc1cc3c(cc1OCCCO2)C#Cc1cc(C(C)(C)C)ccc1OCCCO3` cannot be ordered by TGI: > 10 µM for the first, > 100 µM for the second.

`CC1(C)C=CC(=O)C(O)C(C)(C)C1=O` (stereo not drawn) and `Cc1cc(C[C@H]2O[C@@H]3OC(C)(C)O[C@@H]3[C@H]3OC(C)(C)O[C@H]32)c2ccccc2n1` cannot be ordered by TGI: > 100 µM for the first, > 100 µM for the second.

In the case of `Nc1ncnc2c1ccn2C/C=C/CO`, the TGI is reported as > 100 µM.

Tested on: CCRF-CEM leukemia
Assay: inhibition of tumour cell growth, NCI panel, 48 h

`CNc1nncc2[nH]cnc12` and `CNc1nc(N)nc(Nc2ccc(I)cc2)c1N=O` cannot be ordered by TGI: > 100 µM for the first, > 100 µM for the second.

`COc1ccc(N2C(=O)C3c4[nH]c5cc(C)ccc5c4C4CCC(C(C)(C)C)CC4C3C2=O)cc1` (stereo not drawn) and `CC(C)(C)c1ccc2c(c1)C#Cc1cc3c(cc1OCCCO2)C#Cc1cc(C(C)(C)C)ccc1OCCCO3` cannot be ordered by TGI: > 10 µM for the first, > 100 µM for the second.

Compared with `CC1(C)C=CC(=O)C(O)C(C)(C)C1=O` (stereo not drawn), `Cc1cc(C[C@H]2O[C@@H]3OC(C)(C)O[C@@H]3[C@H]3OC(C)(C)O[C@H]32)c2ccccc2n1` is higher in TGI: 3.63 µM for the first, > 100 µM for the second.

Going from `O=C1/C(=C/c2ccc(Cl)cc2)CCCc2ccccc21` to `Nc1ncnc2c1ccn2C/C=C/CO`, the TGI rises from 32.5 µM to > 100 µM.

Tested on: SR leukemia
Assay: inhibition of tumour cell growth, NCI panel, 48 h

`COc1ccc(N2C(=O)C3c4[nH]c5cc(C)ccc5c4C4CCC(C(C)(C)C)CC4C3C2=O)cc1` (stereo not drawn) and `O=C1/C(=C/c2ccc(Cl)cc2)CCCc2ccccc21` cannot be ordered by TGI: > 10 µM for the first, 37 µM for the second.

`CNc1nc(N)nc(Nc2ccc(I)cc2)c1N=O` and `Cc1cc(C[C@H]2O[C@@H]3OC(C)(C)O[C@@H]3[C@H]3OC(C)(C)O[C@H]32)c2ccccc2n1` cannot be ordered by TGI: > 100 µM for the first, > 100 µM for the second.

Tested on: A498 renal
Assay: inhibition of tumour cell growth, NCI panel, 48 h

`CNc1nncc2[nH]cnc12` and `Nc1ncnc2c1ccn2C/C=C/CO` cannot be ordered by TGI: > 100 µM for the first, > 100 µM for the second.

`COc1ccc(N2C(=O)C3c4[nH]c5cc(C)ccc5c4C4CCC(C(C)(C)C)CC4C3C2=O)cc1` (stereo not drawn) and `CC(C)(C)c1ccc2c(c1)C#Cc1cc3c(cc1OCCCO2)C#Cc1cc(C(C)(C)C)ccc1OCCCO3` cannot be ordered by TGI: > 10 µM for the first, > 100 µM for the second.

`CC1(C)C=CC(=O)C(O)C(C)(C)C1=O` (stereo not drawn) and `Cc1cc(C[C@H]2O[C@@H]3OC(C)(C)O[C@@H]3[C@H]3OC(C)(C)O[C@H]32)c2ccccc2n1` cannot be ordered by TGI: > 100 µM for the first, > 100 µM for the second.

Tested on: COLO 205 colon
Assay: inhibition of tumour cell growth, NCI panel, 48 h

`CNc1nncc2[nH]cnc12` and `CNc1nc(N)nc(Nc2ccc(I)cc2)c1N=O` cannot be ordered by TGI: > 100 µM for the first, > 100 µM for the second.

`COc1ccc(N2C(=O)C3c4[nH]c5cc(C)ccc5c4C4CCC(C(C)(C)C)CC4C3C2=O)cc1` (stereo not drawn) and `CC(C)(C)c1ccc2c(c1)C#Cc1cc3c(cc1OCCCO2)C#Cc1cc(C(C)(C)C)ccc1OCCCO3` cannot be ordered by TGI: > 10 µM for the first, > 100 µM for the second.

`CC1(C)C=CC(=O)C(O)C(C)(C)C1=O` (stereo not drawn) and `Cc1cc(C[C@H]2O[C@@H]3OC(C)(C)O[C@@H]3[C@H]3OC(C)(C)O[C@H]32)c2ccccc2n1` cannot be ordered by TGI: > 100 µM for the first, > 100 µM for the second.

Going from `O=C1/C(=C/c2ccc(Cl)cc2)CCCc2ccccc21` to `Nc1ncnc2c1ccn2C/C=C/CO`, the TGI rises from 34.9 µM to > 100 µM.

Tested on: SW-620 colon
Assay: inhibition of tumour cell growth, NCI panel, 48 h

`CNc1nncc2[nH]cnc12` and `CNc1nc(N)nc(Nc2ccc(I)cc2)c1N=O` cannot be ordered by TGI: > 100 µM for the first, > 100 µM for the second.

`COc1ccc(N2C(=O)C3c4[nH]c5cc(C)ccc5c4C4CCC(C(C)(C)C)CC4C3C2=O)cc1` (stereo not drawn) and `CC(C)(C)c1ccc2c(c1)C#Cc1cc3c(cc1OCCCO2)C#Cc1cc(C(C)(C)C)ccc1OCCCO3` cannot be ordered by TGI: > 10 µM for the first, > 100 µM for the second.

`CC1(C)C=CC(=O)C(O)C(C)(C)C1=O` (stereo not drawn) and `Cc1cc(C[C@H]2O[C@@H]3OC(C)(C)O[C@@H]3[C@H]3OC(C)(C)O[C@H]32)c2ccccc2n1` cannot be ordered by TGI: > 100 µM for the first, > 100 µM for the second.

Compared with `O=C1/C(=C/c2ccc(Cl)cc2)CCCc2ccccc21`, `Nc1ncnc2c1ccn2C/C=C/CO` is higher in TGI: 29 µM for the first, > 100 µM for the second.

Tested on: NCI/ADR-RES ovarian
Assay: inhibition of tumour cell growth, NCI panel, 48 h

`COc1ccc(N2C(=O)C3c4[nH]c5cc(C)ccc5c4C4CCC(C(C)(C)C)CC4C3C2=O)cc1` (stereo not drawn) and `CC(C)(C)c1ccc2c(c1)C#Cc1cc3c(cc1OCCCO2)C#Cc1cc(C(C)(C)C)ccc1OCCCO3` cannot be ordered by TGI: > 10 µM for the first, 29.5 µM for the second.

`CC1(C)C=CC(=O)C(O)C(C)(C)C1=O` (stereo not drawn) and `Cc1cc(C[C@H]2O[C@@H]3OC(C)(C)O[C@@H]3[C@H]3OC(C)(C)O[C@H]32)c2ccccc2n1` cannot be ordered by TGI: > 100 µM for the first, > 100 µM for the second.

First: CNc1nc(N)nc(Nc2ccc(I)cc2)c1N=O
Second: O=C1/C(=C/c2ccc(Cl)cc2)CCCc2ccccc21
The TGI of the first is higher: > 100 µM for the first, 32.6 µM for the second.

In the case of `Nc1ncnc2c1ccn2C/C=C/CO`, the TGI is reported as > 100 µM.

Tested on: CAKI-1 renal
Assay: inhibition of tumour cell growth, NCI panel, 48 h

`CNc1nncc2[nH]cnc12` and `Nc1ncnc2c1ccn2C/C=C/CO` cannot be ordered by TGI: > 100 µM for the first, > 100 µM for the second.

`COc1ccc(N2C(=O)C3c4[nH]c5cc(C)ccc5c4C4CCC(C(C)(C)C)CC4C3C2=O)cc1` (stereo not drawn) and `CC(C)(C)c1ccc2c(c1)C#Cc1cc3c(cc1OCCCO2)C#Cc1cc(C(C)(C)C)ccc1OCCCO3` cannot be ordered by TGI: > 10 µM for the first, > 100 µM for the second.

`CC1(C)C=CC(=O)C(O)C(C)(C)C1=O` (stereo not drawn) and `Cc1cc(C[C@H]2O[C@@H]3OC(C)(C)O[C@@H]3[C@H]3OC(C)(C)O[C@H]32)c2ccccc2n1` cannot be ordered by TGI: > 100 µM for the first, > 100 µM for the second.

`O=C1/C(=C/c2ccc(Cl)cc2)CCCc2ccccc21` was tested, and the TGI was > 100 µM.
